The values that follow are results of earlier work, collected in patent publication US20140332438A1, “WATER-SOLUBLE MELOXICAM GRANULES” (Boehringer Ingelheim Vetmedica GmbH, priority 2002, published 2014).

For the data set the following is noted: aqueous solution, according to EP-A-0 945 134.

Take `Cc1cnc(NC(=O)C2=C(O)c3ccccc3S(=O)(=O)N2C)s1` [meloxicam, 4-hydroxy-2-methyl-N-(5-methyl-2-thiazolyl)-2H-1,2-benzothiazine-3-carboxamide-1,1-dioxide]: the solubility in water entry is “does not dissolve readily in water”.
